# Source: paper PMC8614999, “A Comparative Analysis of Punicalagin Interaction with PDIA1 and PDIA3 by Biochemical and Computational Approaches” (Biomedicines, 2021)
# How the values were obtained:
# PDIA1 [1] = target: T1, PDIA1 (Homo sapiens, UniProt P07237); assay: Disulfide reductase activity with di-E-GSSG, PDIA1; format: biochemical; details: PDIA1, di-E-GSSG substrate
# T1 construct: The pOLR130 plasmid encoding mature human PDIA1 with an N-terminal His6x-tag; His6 (N); made in house; host or cells: E. coli BL21
# Protocol: (§1) PDIAs disulfide reductase activity was monitored by using di-eosin glutathione disulfide (di-E-GSSG) as a fluorogenic substrate of PDIAs. Di-E-GSSG was synthesized by the reaction of eosin isothiocyanate with oxidized glutathione (GSSG) according to the method of Raturi and Mutus with some modifications. Protein activity was evaluated by monitoring the emission fluorescence increase (λem = 545 nm and λex = 525 nm), and the effect of punicalagin (concentration ranging from 0.2 to 50 µM) was tested. Inhibition constants were extrapolated by GraphPad Prism 8.0 software (GraphPad Software, San Diego, CA, USA), plotting the obtained data as logarithm dose-response curves.
# (§2) Punicalagin effects have also been studied on the enzymatic activity of PDIA3 and PDIA1. It is well known that both proteins catalyze oxidoreductase and isomerase reactions involving thiol groups and disulfide bonds. PDIs’ reductase activity was evaluated using di-E-GSSG as fluorogenic substrate and was calculated as the initial velocity in fluorescence increased due to the reduction in the fluorogenic substrate. […] For comparison purposes, the punicalagin inhibitory effect was extended to PDIA1. Results were analyzed as logarithmic dose response, and the half-maximal inhibitory concentrations (IC50) were evaluated (Figure 4).
# PDIA1 [2] = target: T1, PDIA1; assay: Tryptophan fluorescence quenching titration, PDIA1; format: binding; details: for Stern–Volmer constant KSV: 0.1 × 10^−6 M protein; for Stern–Volmer constant KSV / Kd: pH 7.4, 25 °C; for Kd: fluorescence quenching
# Protocol: (§3) Protein-ligand interactions were evaluated according to the fluorescence quenching titration method using a SPEX-FluoroMax spectrofluorometer (Horiba Scientific, Piscataway, NJ, USA). Emission spectra were recorded from 300 to 400 nm with an excitation wavelength set at 290 nm. The emission slit width was fixed to provide a 2 nm bandpass for all experiments. Scan speed was set at 120 nm min^−1. A total of 50 µM PDIA1 and PDIA3 stock solutions were reduced by adding DTT 5 mM. […] The titrations were performed by stepwise additions, at 5 min time intervals, of punicalagin solution from 0 to 4 µM (punicalagin 0.2 mM in PBS pH 7.4 freshly prepared from a 5 mM stock solution in water). Blank spectra for each experiment (no protein added) were performed in parallel for background determination. The emission spectrum of the protein was recorded three times, and the average reading values were then used for quenching analyses as already described.
# (§4) Quenching of intrinsic tryptophan fluorescence at 338 nm has been analyzed by Stern–Volmer equation (Fo/F = 1 + KSV[L]), where F and F0 are the fluorescence intensity, respectively with or without ligand (L), and KSV is the Stern–Volmer constant value. Based on obtained results, punicalagin is able to quench the fluorescence of both proteins with a Stern–Volmer constant always greater than 1.0 × 10^4 M^−1 (Figure 2B and Table 1). […] In order to further characterize the binding process, data were analyzed using the equation described by Bi et al. and the reiterative calculation process described by Sun et al., providing an estimation of the Kd values (Table 1). Punicalagin binds both PDIAs in the micro-molar order of magnitude, showing a slightly greater affinity toward PDIA3, which tryptophan residues appear more quenchable upon punicalagin binding.
# PDIA1 [3] = target: T1, PDIA1; assay: Isothermal titration calorimetry, PDIA1; format: binding; details: ITC, PDIA1 reduced form, 25 °C
# Protocol: (§5) Punicalagin interaction with PDIA3 and PDIA1 was investigated using isothermal titration calorimetry (ITC) with a MicroCal ITC200 (Malvern Instruments, Malvern, UK). […] Protein solution was loaded in the sample cell (0.2 mL), and the syringe was filled with punicalagin 250 µM dissolved in the same buffer. A total of 20 ligand aliquots (the first aliquot of 0.4 µL in 0.8 s and the other 19 aliquots of 2 µL in 4 s) were gradually added to the sample cell at intervals of 200 s each other to allow baseline recovery. The syringe stirring speed was set at 800 rpm. Protein and punicalagin solutions were thoroughly degassed on the MicroCal’s Thermovac machine before loading to avoid air bubble formation during the titration. Data analyses were performed by Origin software version 8.0 (OriginLab, Northampton, MA, USA). The heat of dilution for the ligand was determined in parallel, and this value was subtracted from the integrated data before curve fitting. The integration of the area under each heat burst curve was determined. All injection heats as a function of the molar ratio were plotted and analyzed using the one set of sites model to provide the dissociation constants.
# PDIA3 [4] = target: T2, PDIA3 (Homo sapiens, UniProt P30101); assay: Disulfide reductase activity with di-E-GSSG, PDIA3; format: biochemical; details: PDIA3, di-E-GSSG substrate
# T2 construct: Mature human recombinant PDIA3 protein was expressed and purified; made in house
# T2 sequence (P30101 25-505): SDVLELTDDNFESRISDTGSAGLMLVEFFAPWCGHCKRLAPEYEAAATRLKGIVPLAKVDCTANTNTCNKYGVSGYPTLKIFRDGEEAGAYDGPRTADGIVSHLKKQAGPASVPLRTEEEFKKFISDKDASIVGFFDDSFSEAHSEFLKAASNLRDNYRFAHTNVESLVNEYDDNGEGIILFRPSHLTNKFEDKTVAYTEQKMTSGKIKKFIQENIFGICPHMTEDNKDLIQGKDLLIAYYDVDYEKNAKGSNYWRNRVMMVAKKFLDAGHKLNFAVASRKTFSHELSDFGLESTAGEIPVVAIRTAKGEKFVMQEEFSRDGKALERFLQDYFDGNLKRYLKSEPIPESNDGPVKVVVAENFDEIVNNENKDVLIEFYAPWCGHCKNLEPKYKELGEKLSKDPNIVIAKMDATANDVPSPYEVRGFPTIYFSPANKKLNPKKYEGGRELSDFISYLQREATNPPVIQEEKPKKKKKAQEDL
# Protocol: as §1, §2
# PDIA3 [5] = target: T2, PDIA3; assay: Differential scanning calorimetry thermal denaturation, PDIA3; format: binding; details: reduced PDIA3 5 µM, punicalagin 25 µM
# Protocol: (§6) Protein stability in solution was assayed by differential scanning calorimetry (DSC) with a Microcal VP-DSC (Microcal, Northampton, MA, USA) testing both proteins. […] The reference cell was filled with protein-free buffer. A heating rate of 60 °C h^−1 was set, and the measurement cell worked under an excess pressure of 0.2 kPa to avoid air bubble formation during the heating. The heat absorption during the denaturation process was measured by subtracting the instrumental baseline from the sample trace and normalizing for protein concentration. To test the effect of the ligand on protein stability, analysis was also performed on both proteins in the presence of punicalagin (25 µM final concentration). The melting points (Tm, temperature at which excess heat capacity reaches a maximum) were directly observable from the thermogram. Nevertheless, data deconvolution using the Origin software provided by MicroCal was necessary to obtain Tm values.
# PDIA3 [6] = target: T2, PDIA3; assay: Tryptophan fluorescence quenching titration, PDIA3; format: binding; details: for Stern–Volmer constant KSV: 0.1 × 10^−6 M protein; for Stern–Volmer constant KSV / Kd: pH 7.4, 25 °C; for Kd: fluorescence quenching
# Protocol: as §3, §4
# PDIA3 [7] = target: T2, PDIA3; parameters: method as in PMID 29425676; details: PDIA3 reductase activity, non-competitive inhibitor; cited from earlier work
# PDIA3 [8] = target: T2, PDIA3; assay: Isothermal titration calorimetry, PDIA3; format: binding; details: ITC, PDIA3 reduced form, 25 °C
# Protocol: as §5
# PDIA1 [9] = target: T1, PDIA1; assay: Differential scanning calorimetry thermal denaturation, PDIA1; format: binding; details: reduced PDIA1 5 µM, punicalagin 25 µM
# Protocol: as §6
# [10] = parameters: method as in printed; details: background statement, ref not given; cited from earlier work
# T1 sequence (P07237 18-508): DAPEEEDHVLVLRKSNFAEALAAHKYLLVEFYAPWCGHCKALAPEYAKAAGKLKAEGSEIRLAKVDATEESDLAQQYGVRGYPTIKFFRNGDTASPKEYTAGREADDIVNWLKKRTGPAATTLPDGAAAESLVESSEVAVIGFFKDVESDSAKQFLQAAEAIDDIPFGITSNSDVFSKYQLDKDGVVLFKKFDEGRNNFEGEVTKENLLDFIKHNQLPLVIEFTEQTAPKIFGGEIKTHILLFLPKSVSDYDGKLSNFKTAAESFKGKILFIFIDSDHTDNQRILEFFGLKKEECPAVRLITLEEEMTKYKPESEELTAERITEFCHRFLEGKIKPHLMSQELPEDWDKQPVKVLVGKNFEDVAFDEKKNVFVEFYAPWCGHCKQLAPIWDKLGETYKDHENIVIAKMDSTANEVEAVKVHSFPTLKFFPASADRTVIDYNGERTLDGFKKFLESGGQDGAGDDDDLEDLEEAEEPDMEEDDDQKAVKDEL
structure (smiles),measurement,setting,value
O=C1O[C@H]2[C@@H]3OC(=O)c4cc(O)c(O)c(O)c4-c4c(O)c(O)c5oc(=O)c6c(c(O)c(O)c7oc(=O)c4c5c76)-c4c(cc(O)c(O)c4O)C(=O)OC[C@H]3OC(O)[C@@H]2OC(=O)c2cc(O)c(O)c(O)c2-c2c1cc(O)c(O)c2O (mixture of isomers) [punicalagin],IC50,PDIA1 [1],6.1 ± 0.6 µM
same,Quenching constant Kq,"PDIA1 [2]; PDIA1, KSV = Kqτ, τ in the order of 1.0 × 10^−8 s",greater than 1.0 × 10^10 M^1s^−1
same,Stern–Volmer constant (bound stated in text),"PDIA1 [2]; PDIA1, both proteins always greater",greater than 1.0 × 10^4 M^−1
same,Stern–Volmer constant KSV,PDIA1 [2]; PDIA1 not reduced form,183.2 ± 2.7 M^−1 × 10^3
same,Stern–Volmer constant KSV,PDIA1 [2]; PDIA1 reduced form,97.9 ± 2.1 M^−1 × 10^3
same,Kd,PDIA1 [2]; PDIA1 not reduced form,4.9 µM
same,Kd,PDIA1 [2]; PDIA1 reduced form,11.9 µM
same,Kd,PDIA1 [3],1 ± 0.2 µM
same,TΔS,PDIA1 [3],5.6 ± 0.5 kcal/mol
same,ΔH,PDIA1 [3],-2.7 ± 0.4 kcal/mol
same,IC50,PDIA3 [4],1.5 ± 0.2 µM
same,Tm of first endothermic peak in presence of punicalagin,PDIA3 [5]; protein alone 44.9 °C,40.4 °C
same,Tm of second endothermic peak in presence of punicalagin,PDIA3 [5]; protein alone 53.9 °C,51.6 °C
same,Quenching constant Kq,"PDIA3 [6]; PDIA3, KSV = Kqτ, τ in the order of 1.0 × 10^−8 s",greater than 1.0 × 10^10 M^1s^−1
same,Stern–Volmer constant (bound stated in text),"PDIA3 [6]; PDIA3, both proteins always greater",greater than 1.0 × 10^4 M^−1
same,Stern–Volmer constant KSV,PDIA3 [6]; PDIA3 not reduced form,240.4 ± 3.6 M^−1 × 10^3
same,Stern–Volmer constant KSV,PDIA3 [6]; PDIA3 reduced form,157.1 ± 1.9 M^−1 × 10^3
same,Kd,PDIA3 [6]; PDIA3 not reduced form,3.9 µM
same,Kd,PDIA3 [6]; PDIA3 reduced form,10 µM
same,Ki,PDIA3 [7],0.39 µM
same,Kd,PDIA3 [8],1.2 ± 0.3 µM
same,TΔS,PDIA3 [8],6.8 ± 0.4 kcal/mol
same,ΔH,PDIA3 [8],-1.1 ± 0.2 kcal/mol
same,Tm of first endothermic peak in presence of punicalagin,PDIA1 [9]; protein alone 46.0 °C,42 °C
same,Tm of second endothermic peak in presence of punicalagin,PDIA1 [9]; protein alone 61.0 °C,60 °C
same,solubility in water,[10],soluble in water
